Measurements published in PubChem BioAssay (NCI).
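All cell lines were grown in 96-well plates and treated with compound for 48 hours. TGI is the concentration that stops growth completely.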

Assays:
Test in all cases: NCI tumour cell line growth inhibition, 48 h
CAKI-1 renal = tested on: CAKI-1 renal
COLO 205 colon = tested on: COLO 205 colon
DU-145 prostate = tested on: DU-145 prostate
M14 melanoma = tested on: M14 melanoma
MALME-3M melanoma = tested on: MALME-3M melanoma
NCI-H226 lung = tested on: NCI-H226 lung
NCI-H522 lung = tested on: NCI-H522 lung
SF-268 CNS = tested on: SF-268 CNS
SK-OV-3 ovarian = tested on: SK-OV-3 ovarian
SNB-19 CNS = tested on: SNB-19 CNS
TK-10 renal = tested on: TK-10 renal

Row | SMILES | TGI (CAKI-1 renal) [µM] | TGI (COLO 205 colon) [µM] | TGI (DU-145 prostate) [µM] | TGI (M14 melanoma) [µM] | TGI (MALME-3M melanoma) [µM] | TGI (NCI-H226 lung) [µM] | TGI (NCI-H522 lung) [µM] | TGI (SF-268 CNS) [µM] | TGI (SK-OV-3 ovarian) [µM] | TGI (SNB-19 CNS) [µM] | TGI (TK-10 renal) [µM]
1 | CSc1nc(Br)nc2c1ncn2C1CC(Oc2ccc(C)cc2)C(COc2ccc(C)cc2)O1 (stereo not given) | > 100 | > 100 | > 100 | > 100 | > 100 | > 100 | > 100 | > 100 | > 100 | 73.8 | > 100
2 | c1ccc(C/C(=N\Nc2nc3ccccc3o2)c2ccccn2)cc1 | 0.654 | 0.0114 | 8.38 | 0.992 | 1.82 | 0.363 | 18.9 | 0.921 | 0.0726 | 20.5 | 1.81
3 | CCOC(=O)Cc1nc2c(=O)[nH]cnc2n1C1OC(COC(C)=O)C(OC(C)=O)C1OC(C)=O (stereo not given) | > 100 | > 100 | > 100 | > 100 | > 100 | > 100 | > 100 | > 100 | > 100 | > 100 | > 100
4 | N#Cc1nnc2c3c(-c4ccc(Cl)cc4)c(C#N)c(=O)[nH]c3nn2c1N | 16.4 | 28.4 | 16.8 | 21.7 | 31.6 | 32.6 | 6.11 | 12.6 | 18.2 | 19.5 | > 100
5 | COC1(OC)N=C(N)C2(C#N)/C(=N/N(C)C)CC(C)C12C#N (stereo not given) | > 100 | > 100 | > 100 | > 100 | > 100 | > 100 | > 100 | > 100 | > 100 | > 100 | > 100
